Data taken from patent US20090269309A1, “Retinoic acid stimulates differentiation of pancreatic progenitor cells into insulin producing cells” (priority 2004, published 2009).
Where “and” joins values, the source holds several entries; their conditions need not be identical. Equal entries are not always repeated.

System: mouse embryonic day (e) 10 dorsal pancreatic buds
Experiment: Culture of e10 dorsal pancreatic bud explants with or without RA, endocrine cells scored by immunohistochemistry
Format: cell-based
Excerpt: From mating between C57BL/6 (wild-type) mice, pregnant females were sacrificed ten days after the appearance of a vaginal plug, and embryos collected. The ten-day-old embryos were dissected in L15 medium (Gibco) using forceps and tungsten needles. The L15 medium is […]
At this embryonic stage the dorsal pancreatic bud can be seen as a round structure forming from the gut endoderm that can be dissected out from the surrounding tissues (see FIG. 3). Using a mouth pipette individual isolated pancreatic buds were placed on 0.4 μm, pore 3,28 12 mm Millicell-CM PICM01250 filters (Millipore) that were subsequently placed in a twenty-four well plate (Costar) where each well contained 400 μl culture medium, consisting of DMEM-glutamax1 (Gibco), 1×N2-supplement (Gibco) and PEST (Gibco).
The explants were cultured for six days in 37° C. and 5% CO2 in culture medium alone (control explants) or with 25 nM all-trans retinoic acid (Sigma) added to the medium.
After six days of culture the explants were washed twice in PBS, fixated in 4% PFA in PBS for 25 minutes followed by two more washes in PBS. Using a small pair of scissors the filter was cut around the explant and the filter piece with the explant attached to it was placed in Tissue Tek O.C.T. Compound 4583 (Sakura). In the Tissue Tek the explant was gently removed from the filter using tungsten needles. A small drop of Tissue Tek was applied on a glass slide (Menzel) and the explant was placed in the drop using forceps and tungsten needles. The glass slides were put on dry ice to freeze the drops and were then stored in −80° C.
The frozen explants were sectioned using a Cryostat into […] thick sections that were collected on Superfrost Plus glass slides (Menzel). All explants from one experiment were put on the same slides. The slides were placed in a hybridisation chamber and blocked with blocking solution, TBST (50 mMT nsHCl, pH7.4, 150 mM MaCl, 0,1% Triton X-100)+10% FCS (fetal calf serum), for one hour. After blocking, primary antibodies diluted in fresh blocking solution were added and the slides were incubated overnight at 4° C. The following primary antibodies were used: guinea-pig α insulin (Linco) diluted 1/200, rabbit α glucagon (Euro Diagnostica) diluted 1/1000 and rabbit anti-ngn3 (raised against a GST-ngn3 fusion protein by AgriSeraAB) diluted 1/400. The slides were washed 3×5 minutes in TBST before incubation with secondary antibodies; a guinea-pig alexa488 (Molecular Probes) diluted 1/1000 and α rabbitCy3 (Jackson) diluted 1/400, for one hour in room temperature. The slides were then washed again 3×5 minutes in TBST before they were mounted using Vectashield with DAPI (Vector). The slides were analysed using a Nikon fluorescence microscope. The cells stained for insulin and glucagos respectively were counted and divided by the total number of cells that was counted using the DAPI staining which stains DNA i.e. every cell nucleus.
To investigate a role for RA in pancreatic cell differentiation mouse embryonic day (e) 10 dorsal pancreatic buds, which primarily contain pancreatic stem cells and very few differentiated pancreatic cells, were cultured in serum free media with or without RA for six days. The in vitro cultured explants were then scored for the appearance of endocrine cells expressing glucagon and insulin by immunohistochemistry using antibodies specific for glucagon and insulin. In vitro cultivation in media alone generated a few glucagon-(˜10% of total cells) and insulin-positive (˜5% of total cells) cells but the majority of cells were of non-endocrine origin (FIGS. 1 A-C and data not shown). […] Moreover, RA preferentially stimulated the differentiation of insulin-positive cells, which increased ˜4.5 fold, whereas glucagon-positive cells increased only ˜1,5 fold (FIG. 1D-F).

## CC1=C(/C=C/C(C)=C/C=C/C(C)=C/C(=O)O)C(C)(C)CCC1 [RA, all-trans retinoic acid]
25 nM RA, 2 and 4 days of culture, versus medium alone
  increase in the number of ngn3-positive cells/total number of cells: five-fold increase
25 nM RA, versus medium alone, N=6
  effect on the number of glucagon cells: No significant effect
25 nM all-trans RA, six days of culture, versus explants in medium alone
  increase in the number of insulin positive cells/total number of cells: > 3 fold and ~4.5 fold
25 nM all-trans RA, six days, versus explants cultured in media alone
  increase in endocrine cells: more than 2 fold
25 nM all-trans RA, six days, versus media alone
  increase in glucagon-positive cells: ~1,5 fold
25 nM all-trans RA, six days, media alone ~15%
  endocrine cells (glucagon- and insulin-positive) of total cells: ~37%
